Test results reported in ChEMBL document CHEMBL1132619 (J Med Chem, 1999).

How the values were obtained:
[1] = target: Histamine H3 receptor (Cavia porcellus) (UniProt Q9JI35); settings: Jejunum
[2] = target: Histamine H3 receptor (Rattus norvegicus) (UniProt Q9QYN8); settings: Cerebral cortex
[3] = target: Histamine H2 receptor (Cavia porcellus) (UniProt P47747); settings: Cardiac atrium
[4] = target: Histamine H1 receptor (Cavia porcellus) (UniProt P31389); settings: Jejunum
Histamine H3 receptor = Histamine H3 receptor (Rattus norvegicus, UniProt Q9QYN8); assay: In vitro binding affinity was measured against Histamine H3 receptor on rat cerebral cortex.; assay type: tissue-based
Histamine H3 receptor, sequence (Q9QYN8 whole entry): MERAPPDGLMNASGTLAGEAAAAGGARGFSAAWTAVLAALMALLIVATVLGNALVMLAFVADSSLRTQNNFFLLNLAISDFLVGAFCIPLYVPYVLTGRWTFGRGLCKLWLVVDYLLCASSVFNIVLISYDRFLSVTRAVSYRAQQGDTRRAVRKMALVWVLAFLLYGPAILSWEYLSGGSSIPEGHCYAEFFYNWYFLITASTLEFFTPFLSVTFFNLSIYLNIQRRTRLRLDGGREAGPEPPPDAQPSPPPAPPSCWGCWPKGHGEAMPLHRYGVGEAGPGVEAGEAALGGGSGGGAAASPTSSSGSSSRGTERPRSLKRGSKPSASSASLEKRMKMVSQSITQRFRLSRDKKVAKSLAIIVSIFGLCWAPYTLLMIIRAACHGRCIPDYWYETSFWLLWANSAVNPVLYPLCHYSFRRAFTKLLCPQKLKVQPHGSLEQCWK

Histamine H3 receptor (Rattus norvegicus), sequence (Q9QYN8 whole entry): as above
Histamine H2 receptor (Cavia porcellus), sequence (P47747 whole entry): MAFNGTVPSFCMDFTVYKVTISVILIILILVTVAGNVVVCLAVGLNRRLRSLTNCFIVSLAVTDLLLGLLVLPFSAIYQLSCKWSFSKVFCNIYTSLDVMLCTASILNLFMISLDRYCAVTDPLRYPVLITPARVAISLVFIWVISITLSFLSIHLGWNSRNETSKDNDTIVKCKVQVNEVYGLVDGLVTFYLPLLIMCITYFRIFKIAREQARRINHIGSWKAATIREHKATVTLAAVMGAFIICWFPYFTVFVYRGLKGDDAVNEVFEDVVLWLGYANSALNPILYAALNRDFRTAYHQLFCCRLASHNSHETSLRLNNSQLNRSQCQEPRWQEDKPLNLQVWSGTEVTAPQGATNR
Histamine H1 receptor (Cavia porcellus), sequence (P31389 whole entry): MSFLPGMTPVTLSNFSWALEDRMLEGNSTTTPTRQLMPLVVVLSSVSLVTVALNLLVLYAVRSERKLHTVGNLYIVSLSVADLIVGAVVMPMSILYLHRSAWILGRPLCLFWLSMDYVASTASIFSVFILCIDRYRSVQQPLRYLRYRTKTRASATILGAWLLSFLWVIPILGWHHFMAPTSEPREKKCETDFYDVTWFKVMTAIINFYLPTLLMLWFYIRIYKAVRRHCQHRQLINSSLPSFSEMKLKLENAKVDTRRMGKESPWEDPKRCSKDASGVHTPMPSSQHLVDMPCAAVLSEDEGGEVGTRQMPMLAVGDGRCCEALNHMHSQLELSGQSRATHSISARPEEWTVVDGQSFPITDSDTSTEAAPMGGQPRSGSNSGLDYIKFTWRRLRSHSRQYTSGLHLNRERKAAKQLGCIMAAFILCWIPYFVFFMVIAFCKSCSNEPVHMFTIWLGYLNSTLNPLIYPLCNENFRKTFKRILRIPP
Histamine H3 receptor (Cavia porcellus), sequence (Q9JI35 whole entry): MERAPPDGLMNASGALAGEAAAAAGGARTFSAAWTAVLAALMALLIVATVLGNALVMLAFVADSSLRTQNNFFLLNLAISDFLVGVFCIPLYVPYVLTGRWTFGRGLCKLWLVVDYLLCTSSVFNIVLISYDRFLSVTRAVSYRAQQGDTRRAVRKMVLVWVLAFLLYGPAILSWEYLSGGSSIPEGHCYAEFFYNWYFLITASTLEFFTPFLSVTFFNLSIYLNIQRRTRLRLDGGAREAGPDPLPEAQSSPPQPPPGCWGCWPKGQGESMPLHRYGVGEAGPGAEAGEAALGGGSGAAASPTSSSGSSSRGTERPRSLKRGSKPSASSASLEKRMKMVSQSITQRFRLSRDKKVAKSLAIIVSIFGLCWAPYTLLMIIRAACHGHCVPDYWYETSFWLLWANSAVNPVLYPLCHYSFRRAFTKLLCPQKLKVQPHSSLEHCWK

SMILES	pD2 [1]	pD2 [2]	pD2 [3]	pD2 [4]	Ki (Histamine H3 receptor)
NCCc1c[nH]cn1	7.4	7.4	6.1	6.6	
N[C@@H]1C[C@H]1c1c[nH]cn1	6.15	5.75	4.9	4.5	
N[C@H]1C[C@@H]1c1c[nH]cn1 [VUF-5297]	6.64	7.08	4.8	5	1.74 nM
N[C@@H]1C[C@H]1c1cnc[nH]1 [VUF-5296]					25.1 nM
